US10155726B2, “Substituted pyridines and uses thereof” (PELOTON THERAPEUTICS, INC., priority 2015, dated 2018)
“Also recorded” adds a separate entry of the source.

Tests used:
[1] = target: T1, HIF-2α HIS TAG-PASB Domain (Homo sapiens, UniProt Q99814); assay: HIF-2α Scintillation Proximity Assay (SPA); type: binding; settings: displacement of tritiated probe from HIF-2α PAS-B domain
T1 construct: 100 nM HIF-2α HIS TAG-PASB Domain
Protocol: The total assay volume was about 100 μL in the following configuration: 2 μL compound in 100% DMSO, 88 μL buffer with protein and probe and 10 μL of SPA beads. […] The percent inhibition was determined and IC50 values were calculated using the Dotmatics system based on the following equation: % inhibition=[(high control−sample)/(high control−low control)]×100.

[2] = test system: 786-O cells; assay: VEGF ELISA Assay; type: cell-based; settings: Homo sapiens, 786-0; VEGF concentration in culture medium of 786-O cells
Protocol: About 7500 786-O cells in 180 μL of growth medium were seeded into each well of a 96-well, white, clear bottom plate (07-200-566, Fisher Scientific) on day one in the layout presented in FIG. 3. […] Each concentration was plated in duplicate. About 20 hours later, medium was removed by suction and each well was supplied with 180 μL of growth medium. About 20 μl freshly-made 10× compound stocks were added to each well. […] The EC50 was calculated by GraphPad Prism using the dose-response-inhibition (four parameter) equation. The cell-seeded plate was then subjected to CellTiter-Glo luminescence cell viability assay (Promega) by adding 50 μL of Celltiter Glo reagent into each well and shaking the plate for 8 minutes at 550 rpm (Thermomixer R, Eppendorf) then the luminescence signal immediately read in a plate reader (3 second delay, 0.5 second/well integration time, Synergy 2 multi Detection Microplate reader).

[3] = test system: 786-O-Hif-Luc cells; assay: Luciferase Assay; type: cell-based; settings: about 24 hours
Protocol: 786-O-Hif-Luc single clone cells were obtained by infecting 786-O cells (ATCC® CRL-1932™) with commercial lentivirus that delivers a luciferase gene driven by multiple HIF responsive elements (Cignal Lenti HIF Reporter (luc): CLS-007L, Qiagen) at Multiplicity of Infection (MOI) of 25 for 24 hours. […] A pool of infected cells were then selected against 2 μg/mL of puromycin (P8833, Sigma) for 10 days followed by limited dilution to select single clones. […] For the luciferase assay, about 7500 786-O-Hif-Luc cells in 90 μL growth medium were seeded into each well of a 96-well white opaque plate (08-771-26, Fisher scientific) a day before treatment with the layout presented in FIG. 4. […] Each concentration was tested in triplicate. After about 24 hours, luciferase activity was determined using ONE-Glo Luciferase Assay Reagent (E6110, Promega) following the manufacturer's recommended procedure. EC50 were calculated using Dotmatics software.

[4] = test system: human VEGFA; assay: PK/PD study: human VEGFA in plasma of 786-O xenograft bearing mice by ELISA; type: in vivo, SCID/Biege mice; settings: 10 mg/kg oral gavage, six doses at 12 hour interval, 12 hours post last dose
Protocol: (§1) When the xenografts reached about 750 mm^3 in size, the tumor bearing mice were randomly grouped into four groups (n=3). […] All animals were sacrificed at 12 hours post last dose. Tumors and plasma were collected from each animal. Total RNA was extracted from the tumors, and the expression levels of putative HIF-2α regulated genes were determined by qRT-PCR. […] The level of human VEGFA was assessed using an ELISA assay.

[5] = test system: HIF-2α target genes VEGF, PAI-1 and CCND1; assay: PK/PD study: expression of HIF-2α regulated genes in 786-O tumor xenografts by qRT-PCR; type: in vivo, SCID/Biege mice; settings: 10 mg/kg oral gavage, six doses at 12 hour interval, 12 hours post last dose
Protocol: as §1

T1 sequence (Q99814 239-348): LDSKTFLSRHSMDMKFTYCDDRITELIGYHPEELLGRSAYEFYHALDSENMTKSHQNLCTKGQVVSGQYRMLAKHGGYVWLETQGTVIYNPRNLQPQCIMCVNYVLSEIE

| Structure (SMILES) | IC50 [1] [nM] | EC50 [2] [nM] | EC50 [3] [nM] | level of human VEGFA in plasma of 786-O xenograft bearing mice [4] | mRNA levels of HIF-2α target genes (VEGF, PAI-1, CCND1) in 786-O xenografts [5] |
| --- | --- | --- | --- | --- | --- |
| O[C@H]1c2c(C(F)(F)F)ncc(-c3cc(F)cc(F)c3)c2C[C@H]1F [Compound 36] | 250 to 1000 |  |  |  |  |
| O[C@H]1c2c(C(F)(F)F)ncc(O[C@H]3C[C@H](F)C3)c2C[C@H]1F [Compound 14] | < 50 | < 50 | < 50 |  |  |
| O[C@H]1c2c(C(F)F)ncc(OC3CC(F)(F)C3)c2C[C@@H]1F [Compound 31] | > 1000 |  |  |  |  |
| O[C@H]1c2c(C(F)F)ncc(OC3CC(F)(F)C3)c2C[C@H]1F [Compound 30] | > 1000 |  |  |  |  |
| O[C@H]1c2c(C(F)(F)F)ncc(OCC(F)F)c2C[C@H]1F [Compound 9] | < 50 | 250 to 1000 | 50 to 249 |  |  |
| N#Cc1cc(F)cc(-c2cnc(C(F)(F)F)c3c2C[C@@H](F)[C@H]3O)c1 (racemic) [Compound 7, 3-fluoro-5-((6R,7S)-6-fluoro-7-hydroxy-1-(trifluoromethyl)-6,7-dihydro-5H-cyclopenta[c]pyridin-4-yl)benzonitrile] | 250 to 1000 |  | 250 to 1000 |  |  |
| CC(C)Oc1cnc(C(F)(F)F)c2c1C[C@@H](F)[C@H]2O [Compound 25] | 250 to 1000 |  |  |  |  |
| CS(=O)(=O)c1cnc(Oc2cc(F)cc(C#N)c2)c2c1C(O)CC2 (centres unmarked) [Compound 28] | > 1000 |  |  |  |  |
| N#Cc1cc(F)cc(Oc2cnc(C(F)(F)F)c3c2[C@@H](F)[C@@H](F)[C@H]3O)c1 [Compound 22, 3-(((5R,6S,7S)-5,6-difluoro-7-hydroxy-1-(trifluoromethyl)-6,7-dihydro-5H-cyclopenta[c]pyridin-4-yl)oxy)-5-fluorobenzonitrile] | < 50 | < 50 | < 50 | decreased; also recorded: significant reduction | decreased; also recorded: significant reduction |
| CS(=O)(=O)c1cnc(Oc2cc(F)cc(C#N)c2)c2c1[C@H](O)[C@H](F)[C@@H]2F [Compound 18] | > 1000 |  |  |  |  |
| CS(=O)(=O)c1cnc(Oc2cc(F)cc(C#N)c2)c2c1[C@H](O)C(F)(F)[C@@H]2F [Compound 20] | < 50 |  | > 1000 |  |  |
| N#Cc1cncc(Oc2cnc(C(F)(F)F)c3c2[C@@H](F)[C@@H](F)[C@H]3O)c1 [Compound 34, 5-(((5R,6S,7S)-5,6-difluoro-7-hydroxy-1-(trifluoromethyl)-6,7-dihydro-5H-cyclopenta[c]pyridin-4-yl)oxy)nicotinonitrile] | < 50 | 50 to 249 | 50 to 249 | decreased; also recorded: significant reduction | decreased; also recorded: significant reduction |
| CS(=O)(=O)c1ncc(OC2CC(F)(F)C2)c2c1[C@H](O)[C@H](F)C2 [Compound 12] | 250 to 1000 |  | > 1000 |  |  |
| N#Cc1cc(F)cc(Oc2ncc(C(F)(F)F)c3c2C[C@@H](F)[C@H]3O)c1 [Compound 33, 3-fluoro-5-(((5S,6R)-6-fluoro-5-hydroxy-4-(trifluoromethyl)-6,7-dihydro-5H-cyclopenta[c]pyridin-1-yl)oxy)benzonitrile] | > 1000 |  |  |  |  |
| N#Cc1cc(F)cc(Oc2ncc(C(F)(F)F)c3c2CCC3O)c1 (centres unmarked) [Compound 32] | > 1000 |  |  |  |  |
| CS(=O)(=O)c1ncc(OC2CC(F)(F)C2)c2c1[C@H](O)[C@@H](F)C2 [Compound 11] | > 1000 |  |  |  |  |
| O[C@@H]1CCc2c(OCC(F)F)cnc(C(F)(F)F)c21 [Compound 10] | > 1000 |  | > 1000 |  |  |
| N#Cc1cc(F)cc(Oc2ncc(Br)c3c2C(F)C(F)(F)C3F)c1 (centres unmarked) [Compound 16] | > 1000 |  |  |  |  |
| O[C@H]1c2c(C(F)(F)F)ncc(Oc3cncc(F)c3)c2[C@@H](F)[C@H]1F [Compound 40] | < 50 |  | < 50 |  |  |

| Structure (SMILES) | IC50 [1] [nM] | EC50 [2] [nM] | EC50 [3] [nM] | level of human VEGFA in plasma of 786-O xenograft bearing mice [4] | mRNA levels of HIF-2α target genes (VEGF, PAI-1, CCND1) in 786-O xenografts [5] |
| --- | --- | --- | --- | --- | --- |
| CC(C)Oc1cnc(C(F)(F)F)c2c1C[C@H](F)[C@H]2O [Compound 26] | > 1000 |  |  |  |  |
| O[C@H]1c2c(C(F)(F)F)ncc(OCC(F)F)c2C[C@@H]1F [Compound 27] | 50 to 249 |  | 50 to 249 |  |  |
| N#Cc1cc(F)cc(Oc2cnc(C(F)(F)F)c3c2C[C@@H](F)[C@H]3O)c1 [Compound 3, 3-fluoro-5-(((6R,7S)-6-fluoro-7-hydroxy-1-(trifluoromethyl)-6,7-dihydro-5H-cyclopenta[c]pyridin-4-yl)oxy)benzonitrile] | < 50 | 50 to 249 | < 50 |  |  |
| O=S(=O)(c1cnc(Oc2cc(F)cc(F)c2)c2c1CCC2)C(F)F [Compound 6, 4-(difluoromethylsulfonyl)-1-(3,5-difluorophenoxy)-6,7-dihydro-5H-cyclopenta[c]pyridine] | > 1000 |  | > 1000 |  |  |
| O/N=C1/c2c(C(F)(F)F)ncc(OCC(F)F)c2CC1F (centres unmarked) [Compound 38] | > 1000 |  |  |  |  |
| OC1CCc2c(OCC(F)F)cnc(C3(C(F)(F)F)CC3)c21 (centres unmarked) [Compound 39] | > 1000 |  |  |  |  |
| CS(=O)(=O)c1ncc(Oc2cc(F)cc(C#N)c2)c2c1[C@H](O)[C@H](F)C2 [Compound 4, 3-fluoro-5-(((6R,7S)-6-fluoro-7-hydroxy-1-(methylsulfonyl)-6,7-dihydro-5H-cyclopenta[c]pyridin-4-yl)oxy)benzonitrile] | 50 to 249 |  | 250 to 1000 |  |  |
| CS(=O)(=O)c1cnc(Oc2cc(F)cc(C#N)c2)c2c1[C@H](O)C(F)(F)[C@H]2F [Compound 21] | 250 to 1000 |  | > 1000 |  |  |
| N#Cc1cc(F)cc(Oc2nnc(C(F)(F)F)c3c2CCC3O)c1 (centres unmarked) [Compound 42, 3-fluoro-5-((5-hydroxy-4-(trifluoromethyl)-6,7-dihydro-5H-cyclopenta[d]pyridazin-1-yl)oxy)benzonitrile] | > 1000 |  | > 1000 |  |  |
| O[C@H]1c2c(C(F)(F)F)ncc(OCCCF)c2C[C@H]1F [Compound 23] | < 50 |  | 50 to 249 |  |  |
| O[C@H]1c2c(C(F)(F)F)ncc(Oc3cncc(F)c3)c2C[C@H]1F [Compound 13] | 50 to 249 |  | 50 to 249 |  |  |
| O[C@H]1c2c(C(F)(F)F)ncc(OCCCF)c2C[C@@H]1F [Compound 24] | 50 to 249 |  |  |  |  |
| O[C@@H]1CCc2c(OC3CC(F)(F)C3)cnc(C(F)(F)F)c21 [Compound 2, (R)-4-(3,3-difluorocyclobutoxy)-1-(trifluoromethyl)-6,7-dihydro-5H-cyclopenta[c]pyridin-7-ol] | < 50 |  | 250 to 1000 |  |  |
| O[C@H]1c2c(C(F)(F)F)ncc(OC3CC(F)(F)C3)c2C[C@H]1F [Compound 1, (6R,7S)-4-(3,3-difluorocyclobutoxy)-6-fluoro-1-(trifluoromethyl)-6,7-dihydro-5H-cyclopenta[c]pyridin-7-ol] | < 50 | < 50 | < 50 |  |  |
| N#Cc1cc(F)cc(Oc2cnc(C(F)(F)F)c3c2CCC3O)c1 (centres unmarked) [Compound 8] | < 50 |  | 250 to 1000 |  |  |
| N#Cc1cc(F)cc(Oc2ncc(Br)c3c2[C@@H](F)C(F)(F)[C@H]3O)c1 [Compound 17] | 50 to 249 |  | > 1000 |  |  |
| O[C@H]1c2c(C(F)(F)F)ncc(-c3ccccc3)c2C[C@H]1F [Compound 35] | > 1000 |  |  |  |  |
| CS(=O)(=O)c1cnc(Oc2cc(F)cc(C#N)c2)c2c1[C@H](O)[C@H](F)C2 [Compound 19] | > 1000 |  |  |  |  |
